Experimental data published in ChEMBL document CHEMBL1201862, “PubChem BioAssay data set” (2004).
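Assay format: 96-well plates, 48-hour exposure. GI50 = concentration required for 50% inhibition of growth.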 Active and inactive are the calls of the source. Cut-off read from the data, not from the text of the source: active = GI50 up to about 1.1 µM and inactive = higher.

Columns and labels:
Test in all cases: DTP human tumour cell line panel, 48 h
[1] = system: DLD-1
[2] = system: KM-20L2
[3] = system: LXFL 529
[4] = system: XF498
[5] = system: DMS-273
[6] = system: SNB-78
[7] = system: HOP-18
[8] = system: RXF 631
[9] = system: DMS-114

Row | SMILES | GI50 [1] | GI50 [2] | GI50 [3] | GI50 [4] | GI50 [5] | GI50 [6] | GI50 [7] | GI50 [8] | GI50 [9]
1 | COC1=C2C[C@@H](C)C[C@@H](OC)[C@@H](O)[C@H](C)/C=C(\C)[C@@H](OC(N)=O)[C@H](OC)/C=C\C=C(/C)C(=O)NC(=CC1=O)C2=O | 0.0679 µM (active) | 0.0266 µM (active) | 0.0267 µM (active) | 0.0787 µM (active) | 0.117 µM (active) | 1.04 µM (active) | 0.159 µM (active) | 0.71 µM (active) | –
2 | CC(C)(C)C(=O)ON1N=NC2C3CC(OCc4ccccc4)(OCc4ccccc4)C(O3)C21 (centres undefined) | 15.6 µM (inactive) | 28.4 µM (inactive) | 11.1 µM (inactive) | 18.9 µM (inactive) | 22.3 µM (inactive) | 26 µM (inactive) | 24.2 µM (inactive) | 24.7 µM (inactive) | –
3 | O=Cc1ccccc1OCCOc1cc(OCCOc2ccccc2C=O)c(OCCOc2ccccc2C=O)cc1OCCOc1ccccc1C=O | 40.7 µM (inactive) | > 100 µM (inactive) | 33.7 µM (inactive) | > 39.1 µM (inactive) | 52.2 µM (inactive) | 45.1 µM (inactive) | > 49.4 µM (inactive) | – | 47.3 µM (inactive)
4 | CCO/C([O-])=C(/C=O)[n+]1c(C)n(C)c2ccccc21 | > 100 µM (inactive) | > 100 µM (inactive) | > 100 µM (inactive) | – | > 100 µM (inactive) | > 100 µM (inactive) | > 100 µM (inactive) | – | > 100 µM (inactive)
5 | CCS[C@H]1NC(=O)C1[C@H](C)O[Si](C)(C)C(C)(C)C (some centres undefined) | > 100 µM (inactive) | > 100 µM (inactive) | – | > 100 µM (inactive) | 97.7 µM (inactive) | > 100 µM (inactive) | > 100 µM (inactive) | – | 84.3 µM (inactive)
6 | C1CCC(N=C2N(C3CCCCC3)C(=NC3CCCCC3)N2C2CCCCC2)CC1 | > 100 µM (inactive) | > 100 µM (inactive) | > 100 µM (inactive) | > 100 µM (inactive) | > 100 µM (inactive) | – | > 100 µM (inactive) | – | > 100 µM (inactive)
7 | CN(C)CCNC(=O)c1cccc2nc3c4ccccc4c4ccccc4c3nc12 | 1.56 µM (inactive) | 3.8 µM (inactive) | 2.19 µM (inactive) | 2.47 µM (inactive) | 2.81 µM (inactive) | 14.8 µM (inactive) | 8.71 µM (inactive) | 2.33 µM (inactive) | –
8 | Cc1nc(C(N)=S)sc1C(=O)CC(=O)C(=O)Nc1c(C(C)C)cccc1C(C)C | 55.2 µM (inactive) | 41.3 µM (inactive) | 52 µM (inactive) | 24.5 µM (inactive) | – | 66.2 µM (inactive) | 35.9 µM (inactive) | – | 26.7 µM (inactive)
9 | COc1cc2cnc3c4ccccc4ccc3c2cc1OC | > 100 µM (inactive) | > 100 µM (inactive) | > 100 µM (inactive) | > 100 µM (inactive) | – | > 100 µM (inactive) | – | – | > 100 µM (inactive)
10 | CN(C)CCNC(=O)c1cccc2nc3ccc4cccnc4c3nc12 | 0.24 µM (active) | – | – | – | 0.118 µM (active) | 0.482 µM (active) | 1.78 µM (inactive) | 0.132 µM (active) | 0.533 µM (active)
11 | CN(C)CCNC(=O)c1cc([N+](=O)[O-])cc2ccc(-c3ccccc3)nc12 | 9.2 µM (inactive) | 6.46 µM (inactive) | 18.3 µM (inactive) | 7.19 µM (inactive) | 5.62 µM (inactive) | 17.8 µM (inactive) | 4.97 µM (inactive) | – | 7.16 µM (inactive)
12 | COC(=O)CC1N/C(=N\C#N)N(CCc2c[nH]c3ccccc23)C1=O (centres undefined) | > 100 µM (inactive) | > 100 µM (inactive) | > 100 µM (inactive) | > 100 µM (inactive) | > 100 µM (inactive) | > 100 µM (inactive) | – | – | > 100 µM (inactive)
13 | O=C(CC1(O)C(=O)Nc2ccccc21)c1ccc(O)cc1O (centres undefined) | > 100 µM (inactive) | > 100 µM (inactive) | > 100 µM (inactive) | > 100 µM (inactive) | > 100 µM (inactive) | > 100 µM (inactive) | – | – | > 100 µM (inactive)
